In US11260083B2, “Compositions and methods for treating and preventing graft versus host disease” (The Regents of the University of Michigan, priority 2016, dated 2022):

How the values were obtained:
[1] = test system: HAT; assay: HAT enzymatic activity in donor T cells from recipient spleen; assay type: in vivo, mouse; settings: butyrate vs vehicle treated allogeneic animals
Method: To further determine whether the salutary effects of local treatment with butyrate on GI GVHD were dependent on donor Treg cells, a BMT was performed utilizing the same HC mismatched BMT model in which C57BL/6J (H-2b) cells are transferred to Balb/c (H-2d) mice. T cell-depleted (TCD) bone marrow was transplanted and purified CD4+CD25− T cells from donors. Vehicle or butyrate was administered to the recipients daily for 1 week, then every other day thereafter as above. […]. J. Exp. Med. 204, 57-63 (2007); Lahl, K. & Sparwasser, T. In vivo depletion of FoxP3+ Tregs using the DEREG mouse model. […]. The Treg depleted T cells were then used as donor cells in the major MHC mismatch model used above. […] To further examine whether the local administration of butyrate impacted donor T cells directly, the HDAC and HAT enzymatic activity was determined in donor T cells harvested from the recipient animals. Both the HDAC activity or HAT activity in the donor T cells harvested from the recipient spleen were similar between butyrate and vehicle treated allogeneic animals.

[2] = test system: primary CD326+ IECs; assay: Chromatin immunoprecipitation (acetylated histone-H4) of primary CD326+ IECs; assay type: cell-based, mouse
Method: Primary CD326+ IECs were seeded on gelatin (Cell Biologics; Chicago, Ill.) coated cell culture dishes (100 mm) overnight followed by treatment with butyrate 1 mM for 24 hours. Cells were harvested and used for ChIP analysis using EZ-Magna ChIP kit from EMD Millipore (Billerica, Mass.) following the manufacturers instructions. Briefly, cells were cross-linked with 1% formaldehyde and extracted chromatin was sonicated using a Bioruptor Pico by Diagenode (Denville, N.J.) to yield DNA fragments predominately in the range of 200-1000 bp. Sonicated lysates were immunoprecipitated (IP) utilizing ChIP grade specific antibodies purchased from EMD Millipore for acetylated histone-H4 and RNA Pol II or IgG control antibody. De-crosslinked DNA was next examined by qPCR using primers targeting the promoter region of the target gene BCL-B (Bcl2110) (Forward: […] (SEQ ID NO:50); Reverse: […] (SEQ ID NO:51)), Slc5a8 (Forward: […] (SEQ ID NO:52); Reverse: […] (SEQ ID NO:53), and JAM (F11r) (Forward: […] (SEQ ID NO:54; Reverse: […] (SEQ ID NO:55)). IP efficiency of all samples was verified by qPCR analysis of the promoter region of Gapdh (Forward: […] (SEQ ID NO:56); Reverse: […] (SEQ ID NO:57)). Data analysis was determined as percent of input utilizing the equations: ΔCt[normalized ChIP]=(Ct[ChIP]−(Ct[Input]−[…])) and % Input=2(−ΔCt [normalized ChIP]).

[3] = test system: IEC junction; assay: Transmission electron microscopy of intestines, ruthenium red; assay type: in vivo, mouse; settings: day 7 and day 21; allo-BMT recipients, intragastric butyrate
Description: Samples were stained as previously described (Soler, A. P. et al. Increased tight junctional permeability is associated with the development of colon cancer. Carcinogenesis 20, 1425-1431 (1999)). Briefly, the intestines from mice that received butyrate or vehicle treatment were harvested 7 days and 21 days following syngeneic and allogeneic BMT and flushed with 0.1 M Sorensen's phosphate buffer (pH 7.4) to remove luminal contents using a 20G needle. The intestines were next gently flushed with 0.1% ruthenium red (RR) containing 2.5% glutaraldehyde fixative in Sorensen's buffer and immediately placed in a dish containing the stain/fixative. Cross sections were immediately sliced (2 mm wide) from the duodenum, jejunum, and illium. The tissue was then rinsed three times with Sorensen's buffer, containing 0.1 percent RR and post-fixed for one hour in one percent osmium tetroxide in the same buffer containing RR. […] Images were recorded digitally using a Hamamatsu ORCA-HR digital camera system operated using AMT software (Advanced Microscopy Techniques Corp., Danvers, Mass.).
Intestinal permeability after allo-BMT was assessed by intragastric administration of FITC-dextran, a non-metabolized carbohydrate (Hanash, A. M. et al. Interleukin-22 protects intestinal stem cells from immune-mediated tissue damage and regulates sensitivity to graft versus host disease. Immunity 37, 339-350 (2012)).

**Q.** Which “HAT activity in donor T cells” value [1] does the source give for `CCCC(=O)[O-].[Na+]` [butyrate, sodium butyrate] here?
**A.** Its value is “similar”.

**Q.** And the “association of acetylated histone H4 in the promoter region of Slc5a8” value ([2]; IECs (CD326+) treated with butyrate 1 mM 24 hours)?
**A.** The value was “increased association”.

**Q.** And the “acetylation of histone H4 at the promoter region of Bcl2110” value ([2]; butyrate treated IECs (CD326+))?
**A.** The value was “associated with the promoter region”.

**Q.** What about the “acetylation of histone H4 at the promoter region of F11r” value ([2]; butyrate treated IECs (CD326+)) of the same compound?
**A.** Its value is “associated with the promoter region”.

**Q.** What about the “integrity of the IEC junction (TEM)” value [3] of the same compound?
**A.** The value was “preserved”.
